Measured values taken from publication PMC9705435, “Thiocarbazate building blocks enable the construction of azapeptides for rapid development of therapeutic candidates” (Nature Communications, 2022).
Entries after “also recorded” stand apart in the source; their conditions may differ.

Legend:
[1] = tested on: STZ-induced type 1 diabetic (T1D) mice; assay: Low-dose streptozotocin (STZ)-induced type 1 diabetes in mice; conditions: 500 µg/mouse/day i.p.
Experimental: Data are presented as means ± SD. […] Mice were simultaneously injected i.p. with saline, FSSE (500 µg/mouse/day), or azaF^1SSazaE^4 (500 µg/mouse/day). Blood glucose was measured on day 0, 7 and 14. Number of mice per group: saline n = 7; FSSE n = 8; azaF^1SSazaE^4 n = 8. Data are presented as mean values ± SEM. […] Serum samples from mice challenged with STZ were collected at day 14 and analyzed by ELISA. n = 7 mice per group. Data are presented as mean values ± SEM. […] Number of islets per group: saline n = 3, 13 islets; FSSE n = 2, 11 islets; azaF^1SSazaE^4 n = 3, 23 islets. P-value was calculated using two-sided Fisher’s exact test to compare islets without (score 0) and with (score 1-4) insulitis. Pancreas tissue was histologically analyzed from 2–3 animals per group. Representative hematoxylin and eosin (H&E) stained images of islets from each group are shown (right panel). Scale bars, 50 μm.
given free access to water and standard rodent chow and were acclimated to their environment for at least 1 week before experimentation.
4.5 STZ-induced type 1 diabetes in mice
Induction of Diabetes T1D was induced by administration of streptozotocin (STZ) (Sigma-Aldrich) (50 mg/kg dissolved in sodium citrate buffer, pH 4.5) to 6-8 weeks old C57Bl/6J mice intraperitoneally (i.p.) once each day for 5 consecutive days.
Mice were given water supplemented with 10% sucrose (Sigma-Aldrich) for six days to prevent sudden hypoglycemia during streptozotocin administration.
of FSSE, azaF1SSazaE4 or saline. Blood glucose with either FreeStyle Lite blood glucose meter (Abbot Diabetes Care, Inc.) or Bayer Contour blood glucose meter (Bayer HealthCare, LLC.) and body weight were measured once weekly. At the end of each study, mice were euthanized by CO2 asphyxiation. Blood and pancreas were collected for further analysis.
Pancreas were fixed in 10% formalin and processed for paraffin embedding (AML Laboratory and Genecopoeia). 7-μm-thick sections were stained with hematoxylin/eosin (Genecopoeia) and the degree of insulitis was eva luated microscopically. Islets were analyzed in multiple sections at 20×.

[2] = tested on: mouse model of acetaminophen-induced liver toxicity; assay: Acetaminophen (APAP)-induced liver toxicity in mice; format: in vivo; conditions: vs scrambled peptide; for liver function enzymes and plasma cytokines / pro-inflammatory markers: APAP 200 mg/kg IP, 50 µg/mouse at 2 and 7 hours post-APAP, 24 h; for protection / survival in APAP toxicity model: APAP 400 mg/kg, 50 µg/mouse IP at 2 h post-APAP, then once a day for 5 days
murine monocytes = assay: HMGB1-stimulated TNF release in murine splenic monocytes (ELISA); format: cell-based, mouse; conditions: 0.1, 1 or 10 µM peptide, HMGB1 1 µg/ml, 24 h
Text: 4.2 HMGB1 protein preparation
For TNF ELISA experiments, […]

in vitro = conditions: male, C57BL/6J, mouse, blood
[3] = mouse whole blood
rats = assay: Acute blood pressure monitoring (mean arterial pressure) in anesthetized rats; format: in vivo, rat; conditions: Icatibant 10 µg/kg IV-bolus 15 min before azaF^8-BK
Experimental: Each grey data point represents one animal. Mean values (with SEM where indicated) for animals given experimental agent were compared with vehicle.
Next, in vivo bioactivity of aza-BK analogues was evaluated in an acute blood pressure monitoring study in rats[61] based on the known blood pressure lowering effect of BK. Briefly, rats were anesthetized and changes in mean arterial blood pressure (MAP) were recorded during intravenous (IV) injection of test agents (6.4 µg/kg) (Fig. 4b).
Statistical analysis. […] Data are presented as means ± SEM unless otherwise stated. Differences between treatment groups were determined by 2-tailed Unpaired t-test; p value less than 0.05 was considered statistically significant. […] P values less than 0.05 were considered statistically significant.
5.2 Surgical procedure and physiological blood pressure measurement
Adult male Sprague Dawley rats (n = 22, weight: 300 – 350 gm; age: 8 – 10 weeks) from Charles River Labs were used under the approval of Institutional Animal Care and Use Committee at The Feinstein Institutes for Medical Research
Rats were anesthetized using isoflurane at 1-3 %. Body temperature was maintained at 37°C using a heating pad. […] All physiological signals were registered using PowerLab, BioAmp and BridgeAmp (ADInstruments, CO, USA), which were recorded on a computer using LabChart v8 software (ADInstruments, CO, USA). […]

Molecule | diabetes-induced body weight loss [1] | severity of insulitis (insulitis scores) ([1]; 2 weeks of treatment, H&E) | level of blood glucose ([1]; day 7 and 14) | serum levels of insulin ([1]; day 14, ELISA) | development of hyperglycemia ([1]; vs diabetic (saline) group) | liver function enzymes and plasma cytokines / pro-inflammatory markers [2] | liver function enzymes and plasma cytokines / pro-inflammatory markers ([2]; listed as azaF1SSazaE4) | protection / survival in APAP toxicity model [2] | protection / survival in APAP toxicity model ([2]; listed as azaF1SSazaE4) | HMGB1-induced TNF production (murine monocytes) | half-life (in vitro) | longer half-life than native FSSE peptide [3] | effect of pretreatment on azaF^8-BK (68)-induced lowering of blood pressure (rats)
NC(=O)N(CCC(=O)O)NC(=O)[C@H](CO)NC(=O)[C@H](CO)NC(=O)N(N)Cc1ccccc1 [Compound 51, azaF^1SSazaE^4-NH2] | hindered diabetes-induced body weight loss | much lower than that of FSSE-treated mice; also recorded: reduced | significantly attenuated | successfully restored | delayed the development of hyperglycemia | improved liver function enzymes as well as plasma cytokines | reduced APAP-induced pro-inflammatory markers and serum liver enzymes | protective | improves survival | dose-dependently reduced | > 2 h | > 60 fold | –
icatibant | – | – | – | – | – | – | – | – | – | – | – | – | partial inhibition
